According to PubChem BioAssay (NCI):
“And” between values parts separate entries of the source, which are not always exact repeats. Identical values can stand only once.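 Following 48 hours of exposure in 96-well plates, responses at five concentrations were used to interpolate endpoints linearly. GI50 marks 50% less growth. TGI marks complete inhibition of growth.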

Legend:
Assay in all cases: growth of human tumour cells (NCI), 48 h
[1] = system: NCI/ADR-RES ovarian
[2] = system: CAKI-1 renal
[3] = system: LOX IMVI melanoma
[4] = system: COLO 205 colon
[5] = system: MDA-MB-231 breast
[6] = system: RPMI-8226 leukemia
[7] = system: OVCAR-3 ovarian
[8] = system: SF-295 CNS
[9] = system: HCT-15 colon
[10] = system: MCF7 breast

Structure (SMILES) | TGI [1] | TGI [2] | TGI [3] | TGI [4] | TGI [5] | TGI [6] | TGI [7] | TGI [8] | TGI [9] | TGI [10] | GI50 [1] | GI50 [2] | GI50 [3] | GI50 [4] | GI50 [5] | GI50 [7] | GI50 [8] | GI50 [9] | GI50 [10] | GI50 [6]
Cc1ccc(N(C=O)c2c([N+](=O)[O-])cc([N+](=O)[O-])c3c2=[N+]([O-])CN=3)cc1 | 92.2 µM | > 100 µM | 90.3 µM | 68.1 µM | 54.5 µM | 69.2 µM | 73.6 µM | > 100 µM | 34.8 µM | 57.7 µM |  |  |  |  |  |  |  |  |  | 
COc1ccc(Oc2nc3cc(N)cc(N)c3nc2-c2ccccc2)cc1 | > 100 µM | > 100 µM | > 100 µM | > 100 µM | 64.5 µM | 71.4 µM | 72.7 µM | 52.4 µM | > 100 µM | > 100 µM | 59.9 µM | 79.6 µM | 34.7 µM | > 100 µM | 20.4 µM | 14900 nM | 23.4 µM | 52.1 µM | 48200 nM | 
CCCCC(=O)N(c1ccc(Nc2c3ccccc3nc3cc([N+](=O)[O-])ccc23)cc1)S(C)(=O)=O | > 100 µM | > 51.9 µM | 17.4 µM | 36 µM | 49.5 µM | 14.3 µM | 66.6 µM | > 100 µM | 29 µM | 9.83 µM | 27 µM | 7.03 µM | 3.05 µM | 12.7 µM | 12.8 µM | 14200 nM | 4.83 µM | 4.45 µM | 293 nM | 2680 nM
O=C1C=C(NCCO)c2nccc3c2c1nc1ccccc13 | > 100 µM | 82.2 µM | 95 µM | > 100 µM | > 100 µM | > 100 µM | 52.6 µM | > 100 µM | > 100 µM | > 100 µM | 32 µM | 23.3 µM | 15.8 µM | 14.8 µM | 24.5 µM | 18600 nM | 18.5 µM | 18.6 µM | 20500 nM | 24700 nM
N#C/C(=C\c1cc(O)c(O)c(O)c1)C(N)=O | > 100 µM | > 100 µM | > 65.6 µM | > 100 µM | > 100 µM | > 100 µM | > 100 µM | > 100 µM | > 100 µM | > 56 µM |  |  |  |  |  |  |  |  |  | 
c1ccc(-c2[nH]ncc2-c2ccnc(-c3ccc(OCCN4CCOCC4)cc3)c2)nc1 | > 25 µM | > 25 µM | > 25 µM | > 25 µM | > 25 µM | > 25 µM | > 25 µM | > 25 µM | > 25 µM | > 25 µM | > 25 µM | > 25 µM | > 25 µM | > 25 µM | > 25 µM | > 25000 nM | > 25 µM | > 25 µM | > 25000 nM | > 25000 nM
Cc1cc(O)ccc1C1=NN(c2ccc(S(N)(=O)=O)cc2)C(=O)CC1 | 50 µM and 30 µM | 50 µM and 82.1 µM | 50 µM and > 100 µM | 50 µM and > 100 µM | 50 µM and > 100 µM | 50 µM and 23.6 µM | 29.9 µM and 71 µM | 34.7 µM and 24.3 µM | 50 µM and > 100 µM | 50 µM and > 100 µM | 2.36 µM and 3.9 µM | 4.08 µM and 4.93 µM | 10.8 µM and 29.7 µM | 8.8 µM and 36.6 µM | 10.9 µM and 21.8 µM | 2690 nM and 8060 nM | 2.21 µM and 4.82 µM | 2.67 µM and 4.2 µM | 2260 nM and 8230 nM | 2350 nM and 2760 nM
COc1cccc2c1C(=O)c1c(O)c3c(c(O)c1C2=O)C[C@@](O)(C(=O)CO)CC3OC1CC(N)C(OC2CCCCO2)C(C)O1 (stereo partly drawn) | 4.06 µM | 5.38 µM and 2.76 µM | 1 µM and 1.62 µM |  | 0.273 µM |  |  | 1.13 µM and 2.44 µM | 2.36 µM and 13.3 µM | 1.08 µM |  | 0.523 µM | 0.0184 µM | 0.02 µM |  | 70.9 nM | 0.00963 µM | 0.034 µM |  | 3.94 nM
Cc1ccc(N)cc1[As]=[As]c1cc(N)ccc1C (stereo not drawn) | > 100 µM | 2.86 µM | 2.88 µM | 2.77 µM | 2.82 µM | 4.45 µM | 3.02 µM | 12.3 µM | 2.24 µM | 2.75 µM | 3.19 µM | 1.5 µM | 1.47 µM | 1.33 µM | 1.35 µM | 1620 nM | 4.6 µM | 0.75 µM | 537 nM | 1070 nM
CN(C)c1ccc(/C=C(\C#N)c2cc3ccccc3[nH]2)cc1 | > 100 µM | > 100 µM | > 100 µM | 7.39 µM | > 100 µM | 4.91 µM | 4.06 µM | 7.33 µM | > 100 µM | > 100 µM | 0.49 µM | 1.6 µM | 0.692 µM | 0.566 µM | 1.63 µM | 409 nM | 0.61 µM | 0.509 µM | 416 nM | 630 nM
CCN1CCN(c2nc(C)cc(NCc3cc(Nc4ccnc5cc(Cl)ccc45)ccc3F)n2)CC1 | 15.1 µM | 4.72 µM | 2.34 µM | 3.95 µM | 3.56 µM | 4.32 µM | 4.93 µM | 2.61 µM | 3.66 µM | 5.31 µM | 3.07 µM | 1.83 µM | 1.02 µM | 1.77 µM | 1.44 µM | 1960 nM | 1.05 µM | 1.46 µM | 1810 nM | 981 nM
COC(=O)[C@H](Cc1cn(C)cn1)NC(=O)[C@H](CC(=O)OCc1ccccc1)NC(=O)Nc1cc(C(F)(F)F)cc(C(F)(F)F)c1 | 35.6 µM | 27.8 µM | 8.9 µM | 13.8 µM | 23.3 µM | 17.5 µM | 6.25 µM | 24 µM | > 100 µM | > 100 µM | 17.3 µM | 14.1 µM | 2.96 µM | 3.79 µM | 10.9 µM | 2500 nM | 10.9 µM | 17.9 µM | 3740 nM | 4240 nM
CC(C)(C)[Si](C)(C)OCC1OC(n2cnc3c(=O)[nH]cnc32)CC1O (stereo not drawn) | > 100 µM | > 100 µM | > 100 µM | > 100 µM | > 100 µM | > 100 µM | > 100 µM | > 100 µM | > 100 µM | > 100 µM |  |  |  |  |  |  |  |  |  | 
